According to patent publication US20130011378A1, “Stable formulations of a hyaluronan-degrading enzyme” (priority 2011, published 2013):
Counter-ions that a name gives are not always drawn. Like-named read-outs stand apart in the source and are kept apart here. Residues, ends and D or L forms follow the SMILES beside them.

Legend:
rHuPH20 [1] = biological target: T1, rHuPH20 (Homo sapiens, UniProt P38567); assay: Determination of hyaluronidase activity of rHuPH20, turbidimetric assay (Example 2, variant not specified); type: biochemical; conditions: for Effect on rHuPH20 enzymatic activity: stabilizer screening in rHuPH20/insulin formulation, semi-quantitative in comparison with NaCl, samples incubated at 30° C. for about one week
T1 construct: made in house; host or cells: CHO cells (DG44 CHO, HZ24 plasmid, clone 2B2)
T1 sequence (P38567 36-482): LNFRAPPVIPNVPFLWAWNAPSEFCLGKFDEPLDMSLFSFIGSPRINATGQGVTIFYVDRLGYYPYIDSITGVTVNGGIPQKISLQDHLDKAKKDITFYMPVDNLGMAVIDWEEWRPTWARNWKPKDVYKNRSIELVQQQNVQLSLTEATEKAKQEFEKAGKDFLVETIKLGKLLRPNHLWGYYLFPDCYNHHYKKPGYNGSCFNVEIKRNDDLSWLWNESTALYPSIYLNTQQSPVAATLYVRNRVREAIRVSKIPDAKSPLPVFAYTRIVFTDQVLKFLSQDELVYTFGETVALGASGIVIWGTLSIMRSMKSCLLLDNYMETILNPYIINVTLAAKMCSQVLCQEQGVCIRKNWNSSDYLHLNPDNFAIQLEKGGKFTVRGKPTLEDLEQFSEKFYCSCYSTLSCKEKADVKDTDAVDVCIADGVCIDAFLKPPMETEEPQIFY

[2] = Non-denaturing SEC: percent main peak / aggregates of insulin and rHuPH20; type: physicochemical
Procedure: Reference samples were stored in HPLC vials at 10° C. prior to use.
Samples were stored in HPLC vials at 10° C. prior to use, for up to 3 days.
0.5× Phosphate Buffered Saline (PBS) solution was prepared by diluting 10×PBS with HPLC grade water.
Insulin percent purity was expressed as percentage of the insulin main peak versus the total insulin peaks. The target specification is less than 2% high molecular weight protein, i.e., insulin aggregates.
SEC was performed using the following conditions: 1× Phosphate Buffered Saline (PBS), a Toso BioScience G2000 SWXL column, and a flow rate set at 1 mL/min. Data were collected as described above and means were reported and entered into the design table following the sample sequence provided by the DOE software.

rHuPH20 [3] = biological target: T1, rHuPH20; assay: RP-HPLC: rHuPH20 oxidation peaks (ox-1, ox-2); type: physicochemical; conditions: 0.02% surfactant, 30° C., 72 hours
Text: The stability of hyaluronan degrading enzymes in a composition, such as in the co-formulations provided herein, also can be assessed using other methods and assays known in the art. […] Percent recovery is the relative percentage of the hyaluronidase in the co-formulation over time and at various storage conditions, as compared to a reference sample. […] An increase in particle size and a decrease in the melting temperature indicates denaturation and subsequent aggregation of the hyaluronidase. […] Other methods known to one of skill in the art that can be used to determine the stability of the hyaluronidase in the co-formulations provided herein, include polyacrylamide gel electrophoresis (PAGE), immunoblotting, nuclear magnetic resonance (NMR) spectroscopy, mass spectrometry, circular dichroism (CD) and dye-based fluorescence assays.
The formulations varied in the surfactant and surfactant concentration and the buffer (either histidine or phosphate).
Methionine oxidation can be prevented by addition of free methionine as a scavenger to react with potential oxidative compounds.

[4] = RP-HPLC: insulin apparent solubility / percent recovery
Procedure: Apparent solubility was measured as the percent insulin recovery as compared to the initial formulations/conditions.
Samples were prepared by withdrawing 100 μL from each vial at every time point and centrifuging prior to loading. Samples were stored in an autosampler at 4° C. prior to use, and were considered stable for 3 days after preparation. All samples were tested in duplicate.
For insulin, 20 μL was injected for each HPLC run.
To determine the apparent solubility, the peak area of insulin/insulin analog main peak and desamido peak were integrated and combined together to calculate the percentage relative to the standards. […] The data were processed using Design-Expert® 7.0 (StatEase) and the “historical data” feature. Insulin percent purity was expressed as the percent of main insulin versus all insulin species.

[5] = t = 0, 100 μg/mL rHuPH20, pH 7.3, 140 mM NaCl, 0.01% polysorbate 80, preservative levels of Table 21, in U/mL

rHuPH20 activity (rHuPH20 [1]; 24 hours, 25° C., in U/mL)	rHuPH20 activity (rHuPH20 [1]; 5 days, 25° C., in U/mL)	rHuPH20 activity (rHuPH20 [1]; [5])	% Main rHuPH20 peak by non-denaturing SEC ([2]; 4° C., 1 day)	% Main rHuPH20 peak by non-denaturing SEC ([2]; 35° C., 1 day)	Compound	Effect on rHuPH20 enzymatic activity (rHuPH20 [1])	other results
					hyaluronic acid [HA]		% of the original activity retained (rHuPH20 [1]; 1 week at 30° C., pH 7.1, 1 mg/mL HA, 75 mM NaCl): 57%; % of the original rHuPH20 remained (rHuPH20 [1]; 1 week at 30° C., pH 7.1, 5.5 mg/mL HA, 100 mM NaCl): 68%; % of the original activity retained (rHuPH20 [1]; 1 week at 30° C., pH 7.1, 10 mg/mL HA): 85%; rHuPH20 activity (rHuPH20 [1]; 1 week at 30° C., pH 7.1, 10 mg/mL HA, from 600 U/mL): 510 U/mL; rHuPH20 activity (rHuPH20 [1]; rHuPH20/insulin co-formulation, 1 week at 30° C., pH 7.1, 1 mg/mL HA, 75 mM NaCl, from 600 U/mL): 341 U/mL; effect on rHuPH20 stability in comparison with NaCl (rHuPH20 [1]; stabilizer screening, 30° C. about one week, […] m-cresol, 0.2% phenol): stabilized rHuPH20 more than NaCl
8130	8750	7,720	98.76%	98.12%	[H]/N=C(\N/C(=N/[H])NCCCCCCNC(=N)NC(=N)Nc1ccc(Cl)cc1)Nc1ccc(Cl)cc1 [Chlorhexidine dihydrochloride]		rHuPH20 activity (rHuPH20 [1]; 6 days, 35° C., in U/mL): 11890
					NCC(=O)NCC(=O)O [Gly-Gly] (H-Gly-Gly-OH)	No effect	
					OC[C@H]1O[C@H](O[C@H]2O[C@H](CO)[C@@H](O)[C@H](O)[C@H]2O)[C@H](O)[C@@H](O)[C@@H]1O [Trehalose]	No effect	
10750	2710	11,740	99.64%	<LOD	Benzalkonium Chloride		rHuPH20 activity (rHuPH20 [1]; 6 days, 35° C.): <LOQ
9520	12310	9,590	98.35%	98.23%	N=C(NCCCCCCNC(=N)NC(=N)Nc1ccc(Cl)cc1)NC(=N)Nc1ccc(Cl)cc1.O=C(O)[C@H](O)[C@@H](O)[C@H](O)[C@H](O)CO.O=C(O)[C@H](O)[C@@H](O)[C@H](O)[C@H](O)CO [Chlorhexidine digluconate]		rHuPH20 activity (rHuPH20 [1]; 48 hours, 4° C., preservative levels of Table 22, in U/mL): 12,090; rHuPH20 activity (rHuPH20 [1]; 48 hours, 35° C., preservative levels of Table 22, in U/mL): 13,110; rHuPH20 activity (rHuPH20 [1]; 6 days, 35° C., in U/mL): 12270; % Main rHuPH20 peak by non-denaturing SEC ([2]; 4° C., Table 22 concentrations): 99.77%; % Main rHuPH20 peak by non-denaturing SEC ([2]; 35° C., Table 22 concentrations): 98.30%
					OC[C@@H](O)[C@@H](O)[C@H](O)[C@@H](O)CO [sorbitol]	No effect	
					Polysorbate 80		% of Oxidation Peak 1 of rHuPH20 (rHuPH20 [3]; Methionine 0 mM): 4.01%; % of Oxidation Peak 1 of rHuPH20 (rHuPH20 [3]; Methionine 2 mM): 3.50%; % of Oxidation Peak 1 of rHuPH20 (rHuPH20 [3]; Methionine 10 mM): 3.44%; % of Oxidation Peak 1 of rHuPH20 (rHuPH20 [3]; Methionine 50 mM): 3.34%
					NC(=O)CC[C@H](N)C(=O)O [Glutamine]	No effect	Effect on insulin solubility ([4]; stabilizer screening in rHuPH20/insulin formulation, semi-quantitative in comparison with NaCl, RP-HPLC, samples stored at 5° C.): No effect
3500	1440	11,350	97.89%	<LOD	OCCCCCl [4-Chloro-1-butanol]		rHuPH20 activity (rHuPH20 [1]; 6 days, 35° C.): <LOQ
					OCC(O)CO [glycerol]	No effect	Effect on insulin solubility [4]: No/slight effect;
					O=C(O)CCCc1ccccc1 [Phenyl butyric acid]	No effect	
